Assay results taken from article PMC9229991, “Development of Reduced Peptide Bond Pseudopeptide Michael Acceptors for the Treatment of Human African Trypanosomiasis” (Molecules, 2022).
Read-outs that look alike come from different tables or passages of the source.

Columns and labels:
rhodesain [1] = target: T1, rhodesain (Trypanosoma brucei rhodesiense, UniProt Q95PM0); test: Rhodesain fluorogenic enzyme assay (Cbz-Phe-Arg-AMC substrate); type: biochemical, T. b. rhodesiense; conditions: for Rhodesain kinac: pH 5.5, room temperature; for Rhodesain k2nd: k2nd = kinact/Ki; for inhibition at 100 µM: preliminary screening at 100 µM, read-out: Rhodesain % of inhibition at screening concentration
T1 construct: made in house
T1 sequence (Q95PM0 entry or part of it): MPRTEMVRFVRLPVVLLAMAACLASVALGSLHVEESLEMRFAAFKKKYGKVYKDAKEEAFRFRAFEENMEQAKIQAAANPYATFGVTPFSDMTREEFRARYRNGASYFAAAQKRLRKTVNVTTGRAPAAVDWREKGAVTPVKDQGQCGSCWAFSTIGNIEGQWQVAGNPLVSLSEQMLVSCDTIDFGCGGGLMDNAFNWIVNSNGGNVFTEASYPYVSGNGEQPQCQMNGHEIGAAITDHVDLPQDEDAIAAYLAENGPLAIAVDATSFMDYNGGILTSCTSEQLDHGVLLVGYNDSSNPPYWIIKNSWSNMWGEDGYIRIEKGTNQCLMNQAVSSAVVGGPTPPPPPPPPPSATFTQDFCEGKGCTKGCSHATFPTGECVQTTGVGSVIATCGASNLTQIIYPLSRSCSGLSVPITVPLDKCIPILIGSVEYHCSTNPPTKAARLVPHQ
Experimental: All molecules were tested towards rhodesain utilizing fluorogenic assays in the presence of Cbz-Phe-Arg-AMC as substrate. […] Firstly, all the molecules were preliminarily screened at 100 µM (Figure 1A), and DMSO and E-64 were employed as the negative and positive control, respectively. Since SPR10–SPR19 passed the initial screening (% of inhibition > 80%), they were properly diluted, in accordance with what is reported in the literature.
Rhodesain was recombinantly expressed as previously described and Cbz-Phe-Arg-AMC (10 µM) was used as the fluorogenic substrate. The rhodesain-mediated hydrolysis released the fluorescent portion AMC, and fluorescence was measured at room temperature over a period of 30 min, using an Infinite 200 PRO microplate reader, and excitation (380 nm) and emission ([…]) filters were employed. The assay buffer was composed of 50 mM sodium acetate, 5 mM EDTA, 200 mM NaCl, and 0.005% Brij 35 with a pH equal to 5.5. Similarly, the enzyme buffer contained the same chemicals as the assay, with the exception of Brij, which was replaced by 1,4-dithiothreitol (DTT). All the SPR derivatives were solubilized in DMSO, which was also used as the negative control. E-64 protease inhibitor [76] was employed as the positive control. […] Each independent assay was performed twice and in duplicate, using 96 well-plates in a total volume of […]. The first order inactivation rate constants (kobs) were determined by means of nonlinear regression analysis of the progress curves (fluorescence (F) vs. time), and the equation F = A (1 − exp(−kobst)) + B was used. The obtained kobs values were fitted vs. the concentrations of tested inhibitors, and the equation kobs = kinact [I]/(Kiapp + [I]) provided the Kiapp and kinact values. Ki values were obtained using the equation Ki = Kiapp/(1 + [S]/Km), where Km is equal to 0.9 µM [77]. Grafit software was used for the nonlinear regression analysis to calculate kinact and Ki. The second-order rate constants k2nd were directly determined as k2nd = kinact/Ki.

T. b. brucei [2] = conditions: 24 h; cited from earlier work
rhodesain [3] = target: T1, rhodesain; set-up: method as in PMID 31714776; conditions: lead compound; read-out: Rhodesain (TbrCatL) Ki; cited from earlier work
[4] = target: T2, human Cathepsin L (hCatL) (Homo sapiens, UniProt P07711); set-up: method as in PMID 31714776; conditions: unit printed in cell (PS1, Table 1); cited from earlier work
T2 sequence (P07711 114-333): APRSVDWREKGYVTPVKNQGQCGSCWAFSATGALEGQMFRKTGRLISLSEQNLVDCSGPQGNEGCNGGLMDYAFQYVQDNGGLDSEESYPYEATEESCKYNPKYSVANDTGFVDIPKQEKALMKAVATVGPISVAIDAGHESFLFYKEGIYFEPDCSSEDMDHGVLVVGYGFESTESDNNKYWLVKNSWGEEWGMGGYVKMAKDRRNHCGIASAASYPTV

[5] = target: T2, human Cathepsin L (hCatL); test: hCatL fluorogenic enzyme assay (selectivity); type: biochemical; conditions: for inhibition at 100 µM: screening concentration 100 µM; for Ki: Km 6.5 µM
Experimental: In order to evaluate the selectivity towards the protozoan cysteine protease, all the new Michael acceptors were assayed against human Cathepsin L (hCatL), which represents the homologous protease of rhodesain in humans.
Similarly to rhodesain, the activity towards hCatL was evaluated as reported in the literature. The biological evaluation towards hCatL was performed using the same buffers, reader, fluorogenic substrate, and positive and negative controls as described above for rhodesain, and the preliminary screening was performed at 100 µM. In this case too, each independent assay was performed twice and in duplicate. Differently from rhodesain, Km is equal to 6.5 µM [77].

T. b. brucei [6] = test: Antitrypanosomal activity, ATPlite assay; type: cell-based, Trypanosoma brucei brucei; conditions: 24 h
Experimental: The parasites used in this study were culture-adapted Trypanosoma brucei brucei of the cell line 449, descendants of the Lister strain 427 [79, 80]. The cells were grown in HMI-9 medium supplemented with 10% FCS, 50 U/mL penicillin, 50 µg/mL streptomycin, and 0.2 µg/mL phleomycin, at 37 °C and 5% CO2. EC50 values for the antitrypanosomal activity were determined using the ATPlite assay as previously described. Briefly, 10 mM compound stocks in DMSO were diluted to 333 µM in HMI-9 medium. This mixture was used to prepare nine further consecutive 1:2 dilutions in HMI-9 medium. Subsequently, 10 µL of diluted compound mixtures were added to 90 µL of media containing 2500 cell/mL in wells of a 96-well plate, in two separate triplicates. The highest DMSO concentration reached in compound plus cells mixture was 0.3%, and parasites treated with DMSO only were used as control. The cells were incubated for 24 h at 37 °C. Subsequently, 50 µL ATPlite 1 step solution (PerkinElmer) was added to each well and luminescence was measured using a CLARIOstar Plus plate reader (BMG Labtech).

HEK293 cells = test: Cytotoxicity assay, resazurin; type: cell-based; conditions: 24 h
Experimental: HEK293 cells were cultured in high-glucose DMEM medium with L-glutamine, supplemented with 10% FCS, 20 U/mL penicillin, and 20 µg/mL streptomycin, at 37 °C and 5% CO2. For the cytotoxicity assay, the cells were seeded in 400 µL at 60,000 cells per well of poly-lysine-coated 48-well plates, and incubated for 24 h at 37 °C. Compound stocks were diluted in DMSO in nine consecutive 1:2 steps, resulting in a set of ten dilutions with concentrations from 7 mM to […]. From each dilution, 4 µL were added to the cells in the 48-well plates, in two separate triplicates. Addition of only DMSO served as control. The plates containing cells plus compound dilutions were incubated for 21 h at 37 °C. Subsequently, the medium in each well was exchanged to a medium with resazurin (15 µg/mL), resulting in a final concentration of […]. The plates were incubated for 3 h at 37 °C. Finally, 100 µL of the solution from each well of the 48-well plate was transferred into a 96-well plate, and fluorescence was measured (excitation: 540-14, emission: 590-20) using a CLARIOstar Plus plate reader (BMG Labtech).

L-6 rat myoblast cells = tested on: L-6 rat myoblast cells; set-up: method as in PMID 21200426; conditions: cytotoxicity; read-out: IC50 towards L-6 rat myoblast cells; cited from earlier work
[7] = Cbz-Phe-Arg-AMC 10 µM, pH 5.5, Km 0.9 µM, read-out: Rhodesain Ki

## CC(C)C[C@H](NC(=O)[C@H]1O[C@@H]1C(=O)O)C(=O)NCCCCN=C(N)N [E-64, reference compound]
Rhodesain [1]; [7]
  Ki: 33 ± 7 nM
Rhodesain [1]; Cbz-Phe-Arg-AMC 10 µM
  Rhodesain kinac: 0.0085 ± 0.0008 min⁻¹
Rhodesain [1]
  Rhodesain k2nd: 263000 ± 30000 M⁻¹ min⁻¹

## CSc1ccc(OCc2ncc([N+](=O)[O-])n2C)cc1 [Fexinidazole]
T. b. brucei [2]
  EC50: 2380 ± 880 nM

## CC(=O)C=CC(CCc1ccccc1)NC(=O)C(Cc1ccccc1)NC(=O)c1ccc(F)cc1 (stereo not shown) [PS-1]
T. b. brucei [2]
  EC50: 5100 ± 1000 nM
Rhodesain [3]
  Ki: 0.0011 nM
Rhodesain [1]; Cbz-Phe-Arg-AMC 10 µM
  Rhodesain kinac: 0.00094 ± 0.00007 min⁻¹
Rhodesain [1]
  Rhodesain k2nd: 8.384e+08 ± 1.066e+08 M⁻¹ min⁻¹
[4]
  Ki: 1.9 ± 0.4 nM

## COC(=O)/C=C/[C@H](CCc1ccccc1)NC(=O)[C@H](Cc1ccccc1)NCc1ccccc1 [SPR10, Methyl (S,E)-4-((S)-2-(benzylamino)-3-phenylpropanamido)-6-phenylhex-2-enoate]
Rhodesain [1]; [7]
  Ki: 5660 ± 300 nM
Rhodesain [1]; Cbz-Phe-Arg-AMC 10 µM
  Rhodesain kinac: 0.0096 ± 0.0001 min⁻¹
Rhodesain [1]
  Rhodesain k2nd: 1703 ± 68 M⁻¹ min⁻¹
  inhibition at 100 µM: > 80%
[5]
  inhibition at 100 µM: 16%

## COC(=O)/C=C/[C@H](CCc1ccccc1)NC(=O)[C@H](Cc1ccccc1)NCc1ccc([N+](=O)[O-])cc1 [SPR11, Methyl (S,E)-4-((S)-2-((4-nitrobenzyl)amino)-3-phenylpropanamido)-6-phenylhex-2-enoate]
Rhodesain [1]; [7]
  Ki: 430 ± 60 nM
Rhodesain [1]; Cbz-Phe-Arg-AMC 10 µM
  Rhodesain kinac: 0.0023 ± 0.0001 min⁻¹
Rhodesain [1]
  inhibition at 100 µM: > 80%
[5]
  Ki: 36900 ± 2200 nM

## COC(=O)/C=C/[C@H](CCc1ccccc1)NC(=O)[C@H](Cc1ccccc1)NCc1ccc(OC)cc1 [SPR12, Methyl (S,E)-4-((S)-2-((4-methoxybenzyl)amino)-3-phenylpropanamido)-6-phenylhex-2-enoate]
Rhodesain [1]; [7]
  Ki: 4790 ± 1410 nM
Rhodesain [1]; Cbz-Phe-Arg-AMC 10 µM
  Rhodesain kinac: 0.0062 ± 0.0014 min⁻¹
Rhodesain [1]
  Rhodesain k2nd: 1314 ± 91 M⁻¹ min⁻¹
  inhibition at 100 µM: > 80%
[5]
  Ki: 18500 ± 3900 nM

## COC(=O)/C=C/[C@H](CCc1ccccc1)NC(=O)[C@H](Cc1ccccc1)NCc1ccccc1F [SPR13, Methyl (S,E)-4-((S)-2-((2-fluorobenzyl)amino)-3-phenylpropanamido)-6-phenylhex-2-enoate]
Rhodesain [1]; [7]
  Ki: 1580 ± 620 nM
Rhodesain [1]; Cbz-Phe-Arg-AMC 10 µM
  Rhodesain kinac: 0.0038 ± 0.0003 min⁻¹
Rhodesain [1]
  Rhodesain k2nd: 2753 ± 885 M⁻¹ min⁻¹
  inhibition at 100 µM: > 80%
[5]
  inhibition at 100 µM: 10%

## COC(=O)/C=C/[C@H](CCc1ccccc1)NC(=O)[C@H](Cc1ccccc1)NCc1cccc(F)c1 [SPR14, Methyl (S,E)-4-((S)-2-((3-fluorobenzyl)amino)-3-phenylpropanamido)-6-phenylhex-2-enoate]
Rhodesain [1]; [7]
  Ki: 1260 ± 80 nM
Rhodesain [1]; Cbz-Phe-Arg-AMC 10 µM
  Rhodesain kinac: 0.0043 ± 0.0007 min⁻¹
Rhodesain [1]
  Rhodesain k2nd: 3398 ± 328 M⁻¹ min⁻¹
  inhibition at 100 µM: > 80%
[5]
  inhibition at 100 µM: 35%

## COC(=O)/C=C/[C@H](CCc1ccccc1)NC(=O)[C@H](Cc1ccccc1)NCc1ccc(F)cc1 [SPR15, Methyl (S,E)-4-((S)-2-((4-fluorobenzyl)amino)-3-phenylpropanamido)-6-phenylhex-2-enoate]
Rhodesain [1]; [7]
  Ki: 2640 ± 130 nM
Rhodesain [1]; Cbz-Phe-Arg-AMC 10 µM
  Rhodesain kinac: 0.0041 ± 0.0002 min⁻¹
Rhodesain [1]
  Rhodesain k2nd: 1552 ± 19 M⁻¹ min⁻¹
  inhibition at 100 µM: > 80%
[5]
  inhibition at 100 µM: 10%

## COC(=O)/C=C/[C@H](CCc1ccccc1)NC(=O)[C@H](Cc1ccccc1)NCc1ccc(F)cc1F [SPR16, Methyl (S,E)-4-((S)-2-((2,4-difluorobenzyl)amino)-3-phenylpropanamido)-6-phenylhex-2-enoate]
T. b. brucei [6]; Trypanosoma brucei
  EC50: 8700 ± 3000 nM
Rhodesain [1]; [7]
  Ki: 220 ± 60 nM
Rhodesain [1]; Cbz-Phe-Arg-AMC 10 µM
  Rhodesain kinac: 0.0014 ± 0.0001 min⁻¹
Rhodesain [1]
  inhibition at 100 µM: > 80%
HEK293 cells
  Cytotoxicity towards HEK293 cells: concentration up to which no relevant cytotoxicity was observed: > 70 µM
[5]
  inhibition at 100 µM: 38%

## COC(=O)/C=C/[C@H](CCc1ccccc1)NC(=O)[C@H](Cc1ccccc1)NCc1cc(F)ccc1F [SPR17, Methyl (S,E)-4-((S)-2-((2,5-difluorobenzyl)amino)-3-phenylpropanamido)-6-phenylhex-2-enoate]
Rhodesain [1]; [7]
  Ki: 460 ± 160 nM
Rhodesain [1]; Cbz-Phe-Arg-AMC 10 µM
  Rhodesain kinac: 0.0024 ± 0.0006 min⁻¹
Rhodesain [1]
  inhibition at 100 µM: > 80%
[5]
  inhibition at 100 µM: 12%

## COC(=O)/C=C/[C@H](CCc1ccccc1)NC(=O)[C@H](Cc1ccccc1)NCc1c(F)cccc1F [SPR18, Methyl (S,E)-4-((S)-2-((2,6-difluorobenzyl)amino)-3-phenylpropanamido)-6-phenylhex-2-enoate]
T. b. brucei [6]; Trypanosoma brucei
  EC50: 7000 ± 1000 nM
Rhodesain [1]; [7]
  Ki: 210 ± 10 nM
Rhodesain [1]; Cbz-Phe-Arg-AMC 10 µM
  Rhodesain kinac: 0.0012 ± 0.0001 min⁻¹
Rhodesain [1]
  inhibition at 100 µM: > 80%
HEK293 cells
  Cytotoxicity towards HEK293 cells: concentration up to which no relevant cytotoxicity was observed: > 70 µM
[5]
  inhibition at 100 µM: 26%

## COC(=O)C=CC(CCc1ccccc1)NC(=O)C(Cc1ccccc1)NCc1ccc(C(F)(F)F)cc1 (stereo not shown) [SPR19]
Rhodesain [1]
  Ki: 410 ± 70 nM
  inhibition at 100 µM: > 80%
Rhodesain [1]; Cbz-Phe-Arg-AMC 10 µM
  Rhodesain kinac: 0.0023 ± 0.0002 min⁻¹
[5]
  inhibition at 100 µM: 45%

## COC(=O)/C=C/[C@H](CCc1ccccc1)NC(=O)[C@H](Cc1ccccc1)NC(=O)c1ccc(F)cc1 [SPR34, (S,E)-methyl 4-((S)-2-(4-fluorobenzamido)-3-phenylpropanamido)-6-phenylhex-2-enoate]
T. b. brucei [6]
  EC50: 15800 ± 2000 nM
T. b. brucei [6]; Trypanosoma brucei
  EC50: 16000 ± 2100 nM
Rhodesain [1]; [7]
  Ki: 5.8 ± 0.4 nM
Rhodesain [1]; Cbz-Phe-Arg-AMC 10 µM
  Rhodesain kinac: 0.0050 ± 0.0003 min⁻¹
Rhodesain [1]
  Rhodesain k2nd: 870,606 ± 1178 M^−1 min^−1
HEK293 cells
  Cytotoxicity towards HEK293 cells: concentration up to which no relevant cytotoxicity was observed: > 70 µM
[5]
  Selectivity Index (SI) (Ki hCatL/rhodesain): 603
  Ki: 3500 ± 1100 nM

## Nc1nc(N)nc(Nc2ccc([As]3SCC(CO)S3)cc2)n1 (stereo not shown) [melarsoprol]
L-6 rat myoblast cells
  IC50: 3300 nM
